Laboratory results reported in patent US8476309B2, “Benzofuran cannabinoid compounds and related methods of use” (The University of Tennessee Research Foundation, priority 2009, dated 2013).
Like-named read-outs stand apart in the source and are kept apart here.

Tested on: glioblastoma brain cancer cell line LN-229
Experiment: Cytotoxicity assay (CCK8 viability)
Type: cell-based
Details: Homo sapiens, read-out: EC50 LN-229, 24 hrs, 1% FBS
Experimental: Cytoxocity assay: Cells are seeded on a 96 well polystyrene plate in full serum media at a density of 75,000 cells per milliliter, 100 μL per well. Plates are incubated at 37° C. and 5% CO2 for 24 hours to allow cell attachment. Drug solutions are prepared in DMSO at 100× concentration and mixed 1:100 in 1% FBS media to yield the desired concentration. Drug-media mixtures are vortexed immediately prior to administration to cells. […] 10 μL of Cell Counting Kit 8 (CCK8, Dojindo# CK04-11) is added to each well to colormetrically assess viability. After 2-4 hours of incubation with the CCK8 dye, absorbance is read at 450 nm by a BioTek Synergy 2 plate reader.
The cytotoxicity of selected compounds against the glioblastoma brain cancer cell line LN-229 is depicted in Table 2.

[1] = LN-229 cells, 24 hrs, 1% FBS media, CCK8 readout

CCCCCc1cc(O)c2c(-c3cccs3)coc2c1 [Compound 49, 6-Pentyl-3-thiophen-2-yl-benzofuran-4-ol]
EC50 [1]: 68.5 µM

CCCCCc1cc(O)c2cc(-c3cccs3)oc2c1 [Compound 50, 6-Pentyl-2-thiophen-2-yl-benzofuran-4-ol]
EC50 [1]: 10.1 µM

CCCCCc1cc(O)c2c(-c3cccc(C)c3)coc2c1 [Compound 51, 6-Pentyl-3-m-tolylbenzofuran-4-ol]
EC50 (LN-229, 24 h): 16.4 µM

CCCCCc1cc(O)c2c(-c3ccccc3)coc2c1 [Compound 52, 6-Pentyl-3-phenylbenzofuran-4-ol]
EC50 [1]: 10.7 µM

CCCCCc1cc(O)c2c(-c3cc(OC)cc(OC)c3)coc2c1 [Compound 55, 3-(3,5-Dimethoxyphenyl)-6-pentylbenzofuran-4-ol]
EC50 (LN-229, 24 h): 10.3 µM

CCCCCc1cc(O)c2cc(-c3cc(OC)cc(OC)c3)oc2c1 [Compound 56, 2-(3,5-Dimethoxyphenyl)-6-pentylbenzofuran-4-ol]
EC50 [1]: 10.3 µM

CCCCCc1cc(O)c2c(-c3cc(Cl)cc(Cl)c3)coc2c1 [Compound 58, 3-(3,5-Dichlorophenyl)-6-pentylbenzofuran-4-ol]
EC50 (LN-229, 24 h): 13.6 µM

CCCCCc1cc(O)c2cc(-c3cc(Cl)cc(Cl)c3)oc2c1 [Compound 59, 2-(3,5-Dichlorophenyl)-6-pentylbenzofuran-4-ol]
EC50 [1]: 6.12 µM

CCCCCCC(C)(C)c1cc(O)c2c(-c3cc(Cl)cc(Cl)c3)coc2c1 [Compound 62, 3-(3,5-Dichlorophenyl)-6-(2-methyloctan-2-yl)benzofuran-4-ol]
EC50 [1]: 11.4 µM

CCCCCCC(C)(C)c1cc(O)c2c(-c3ccccc3)coc2c1 [Compound 63, 6-(2-Methyloctan-2-yl)-3-phenylbenzofuran-4-ol]
EC50 [1]: 10.3 µM

CC(C)(c1cccc(F)c1)c1cc(O)c2c(-c3ccccc3)coc2c1 [Compound 75, 6-(2-(3-Fluorophenyl)propan-2-yl)-3-phenylbenzofuran-4-ol]
EC50 [1]: 6.99 µM
